Results: patent US12358915B2, “METTL3 inhibitory compounds” (STORM THERAPEUTICS LTD., priority 2019, dated 2025)
Where two headings read alike, the source gives them in different places.

Tests used:
METTL3/14 = target: T1, METTL3/14 (Homo sapiens, UniProt Q86U44); assay: METTL3/14 methyltransferase assay (METTL3_14 RFMS, RapidFire mass spectrometry); format: biochemical; conditions: 5 nM METTL3/14, 0.2 μM RNA substrate, 0.5 μM SAM, lower limit of the assay IC50=5 nM, read-out: METTL3_14 RFMS IC50;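 note: recombinant His-tagged METTL3 with FLAG-tagged METTL14 from baculovirus, SAH product quantified by mass spectrometry against isotope-labelled internal standards, 60 min at room temperature, scaled between no-RNA and DMSO-only wells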
T1 construct: The enzyme used was full-length his-tagged METTL3; His; made in house
T1 sequence (Q86U44 whole entry): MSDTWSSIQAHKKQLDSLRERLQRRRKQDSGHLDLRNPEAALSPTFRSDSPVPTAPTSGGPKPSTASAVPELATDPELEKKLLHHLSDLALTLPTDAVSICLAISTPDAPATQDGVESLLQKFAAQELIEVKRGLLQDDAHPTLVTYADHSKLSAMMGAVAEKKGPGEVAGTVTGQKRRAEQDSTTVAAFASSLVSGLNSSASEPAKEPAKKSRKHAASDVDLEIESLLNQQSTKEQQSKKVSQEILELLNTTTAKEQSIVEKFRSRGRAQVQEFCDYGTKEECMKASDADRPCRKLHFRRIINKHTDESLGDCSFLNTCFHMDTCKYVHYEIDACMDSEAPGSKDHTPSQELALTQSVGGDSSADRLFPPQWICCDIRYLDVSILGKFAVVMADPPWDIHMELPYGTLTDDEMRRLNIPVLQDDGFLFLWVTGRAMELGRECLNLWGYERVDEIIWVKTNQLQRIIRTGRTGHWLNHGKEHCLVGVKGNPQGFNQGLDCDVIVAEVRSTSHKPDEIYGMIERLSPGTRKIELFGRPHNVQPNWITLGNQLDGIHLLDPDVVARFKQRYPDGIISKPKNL
T1 sequence (Q9HCE5 whole entry partner): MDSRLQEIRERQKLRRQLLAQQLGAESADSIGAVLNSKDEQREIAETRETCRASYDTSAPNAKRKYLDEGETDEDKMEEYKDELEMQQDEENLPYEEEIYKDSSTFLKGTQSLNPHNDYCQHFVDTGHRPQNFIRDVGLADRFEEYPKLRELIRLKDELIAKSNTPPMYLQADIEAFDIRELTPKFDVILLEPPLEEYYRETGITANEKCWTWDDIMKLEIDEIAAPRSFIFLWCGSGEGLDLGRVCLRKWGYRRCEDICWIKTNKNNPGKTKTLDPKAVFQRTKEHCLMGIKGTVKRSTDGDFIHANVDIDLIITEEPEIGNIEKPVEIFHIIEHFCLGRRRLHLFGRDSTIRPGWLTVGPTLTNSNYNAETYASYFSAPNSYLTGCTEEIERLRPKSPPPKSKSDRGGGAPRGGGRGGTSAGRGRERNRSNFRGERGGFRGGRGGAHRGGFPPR

MOLM-13 cells = assay: MOLM13 CTG - analysis of cell proliferation (Cell Titre Glo); format: cell-based; conditions: Homo sapiens, geometric mean, read-out: CTG MOLM13 cells IC50 GEOMEAN
Procedure: MOLM-13 or MOLM-14 cells were plated, in suspension, in 24 well tissue culture plates at final concentration of 200,000/ml, with or without 50 ng/ml IFNγ. […] Cells were incubated for 4 days at 37° C. at which point 600 μl of cell suspension was removed for Mass spectrometry analysis of m6A. 600 μl of fresh media containing the appropriate concentration of METTL3 inhibitor/IFNγ was added to remaining cell suspensions. Cells where then cultured for a further 7 days, cell suspension was sampled for analysis of proliferation and Cell surface markers periodically.
At regular time points (4, 5, 6 &7) days cells were mixed to maintain a homogenous cell suspension. 25 μl of this cell suspension was removed and added to a white 384 well plate, 25 μl of Cell Titre Glo reagent (Promega) was added, and incubated for 10 mins at room temperature before measurement of luminescence intensity, as per the manufacturers instructions.

| SMILES | IC50 (METTL3/14; Compounds 266-351) | IC50 (MOLM-13 cells) | IC50 (METTL3/14; Compounds 63-265) |
| --- | --- | --- | --- |
| O=C(NCc1cn2cc(CN3CCCCC3)ccc2n1)c1cc(=O)n2ccccc2n1 [Compound 104, 4-oxo-N-({6-[(piperidin-1-yl)methyl]imidazo[1,2-a]pyridin-2-yl}methyl)-4H-pyrido[1,2-a] pyrimidine-2-carboxamide] |  | 8730 nM | 69.1 nM |
| O=C(NCc1cn2cc(C(Cc3ccccc3)NCC3CCC3)ccc2n1)c1cc(=O)n2ccccc2n1 (stereo not shown) [Example 313, N-[[6-[1-(cyclobutylmethylamino)-2-phenyl-ethyl]imidazo[1,2-a]pyridin-2-yl]methyl]-4-oxo-pyrido[1,2-a]pyrimidine-2-carboxamide] | 37.6 nM | 11300 nM |  |
| O=C(NCc1cn2cc(CNCC3CC(F)(F)C3)ccc2n1)c1cc(=O)n2ccccc2n1 [Compound 83, N-{[6-({[(3,3-difluoro-cyclobutyl)methyl]amino}methyl)imidazo[1,2-a]pyridin-2-yl]methyl}-4-oxo-4H-pyrido [1,2-a]pyrimidine-2-carboxamide] |  | 4120 nM | 10.6 nM |
| CC1(CNCc2ccc3nc(CNC(=O)c4cc(=O)n5ccccc5n4)cn3c2)CCC1 [Compound 282, N-[[6-[[(1-methylcyclobutyl)methylamino]methyl]imidazo[1,2-a]pyridin-2-yl]methyl]-4-oxo-pyrido[1,2-a]pyrimidine-2-carboxamide] | 10.6 nM | 3420 nM |  |
| O=C(NCc1cn2cc(CCNCc3ccccc3)ccc2n1)c1cc(=O)n2ccccc2n1 [Compound 235, N-({6-[2-(benzylamino)ethyl]imidazo[1,2-a]pyridin-2-yl}methyl)-4-oxo-4H-pyrido[1,2-a]pyrimidine-2-carboxamide] |  | ≥ 30000 nM | 111 nM |
| CC(C)(NCc1ccc2nc(CNC(=O)c3cc(=O)n4ccccc4n3)cn2c1)c1ccccc1 [Compound 78, 4-oxo-N-[(6-{[(2-phenylpropan-2-yl)amino]methyl}imidazo[1,2-a]pyridin-2-yl)methyl]-4H-pyrido[1,2-a]pyrimidine-2-carboxamide] |  | 6040 nM | 163 nM |
| O=C(NCc1cn2cc(CNCCC3CC(F)(F)C3)ccc2n1)c1cc(=O)n2ccccc2n1 [Compound 213, N-{[6-({[2-(3,3-difluorocyclo-butyl)ethyl]amino}methyl)imidazo[1,2-a]pyridin-2-yl]methyl}-4-oxo-4H-pyrido [1,2-a]pyrimidine-2-carboxamide] |  | ≥ 30000 nM | 41.8 nM |
| O=C(NCc1cn2cc(CNC[C@H]3C[C@H](F)C3)ccc2n1)c1cc(=O)n2ccccc2n1 [Compound 217, 4-oxo-N-({6-[({[(1r,3r)-3-fluorocyclo-butyl]methyl}amino)methyl]imidazo[1,2-a]pyridin-2-yl}methyl)-4H-pyrido[1,2-a] pyrimidine-2-carboxamide] |  | 2930 nM | 7.58 nM |
| O=C(NCc1cn2cc(CNCC3(F)CCC3)ccc2n1)c1cc(=O)n2ccccc2n1 [Compound 206, N-{[6-({[(1-fluorocyclobutyl)methyl]amino}methyl)imidazo [1,2-a]pyridin-2-yl]methyl}-4-oxo-4H-pyrido [1,2-a]pyrimidine-2-carboxamide] |  | 9130 nM | 15.6 nM |
| CC(NCc1ccc2nc(CNC(=O)c3cc(=O)n4ccccc4n3)cn2c1)C1CCCCC1 (stereo not shown) [Compound 203, N-[(6-{[(1-cyclohexylethyl)amino]methyl}imidazo[1,2-a]pyridin-2-yl)methyl]-4-oxo-4H-pyrido [1,2-a]pyrimidine-2-carboxamide] |  | 8740 nM | 32 nM |
| O=C(NCc1cn2cc(CNCC3(O)CCCCC3)ccc2n1)c1cc(=O)n2ccccc2n1 [Compound 209, N-{[6-({[(1-hydroxycyclohexyl)methyl]amino}methyl)imidazo [1,2-a]pyridin-2-yl]methyl}-4-oxo-4H-pyrido [1,2-a]pyrimidine-2-carboxamide] |  | 6580 nM | 10 nM |
| O=C(NCc1cn2cc(CNC3CC34CCC4)ccc2n1)c1cc(=O)n2ccccc2n1 (stereo not shown) [Compound 280, 4-oxo-N-[[6-[(spiro[2.3]hexan-2-ylamino)methyl]imidazo[1,2-a]pyridin-2-yl]methyl]pyrido[1,2-a]pyrimidine-2-carboxamide] | 13.1 nM | 4500 nM |  |

Second part, the molecule after the results:

| IC50 (METTL3/14; Compounds 266-351) | IC50 (MOLM-13 cells) | IC50 (METTL3/14; Compounds 63-265) | SMILES |
| --- | --- | --- | --- |
| 5.8 nM | 998 nM |  | OC1(CNCc2ccc3nc(Cn4cc(-c5cc(Br)cc6[nH]ncc56)nn4)cn3c2)CCCCC1 [Example 294, 1-[[[2-[[4-(6-bromo-1H-indazol-4-yl)triazol-1-yl]methyl]imidazo[1,2-a]pyridin-6-yl]methylamino]methyl]cyclohexanol] |
| 9.46 nM | 3930 nM |  | OC1(CNCc2ccc3nc(Cn4cc(-c5ccc(F)c6[nH]ncc56)nn4)cn3c2)CCCCC1 [Example 306, 1-[[[2-[[4-(7-fluoro-1H-indazol-4-yl)triazol-1-yl]methyl]imidazo[1,2-a]pyridin-6-yl]methylamino]methyl]cyclohexanol] |
| 69.5 nM | ≥ 30000 nM |  | CC(C)(O)CNCc1ccc2nc(CNC(=O)c3cc(=O)n4ccccc4n3)cn2c1 [Compound 287, N-[[6-[[(2-hydroxy-2-methyl-propyl)amino]methyl]imidazo[1,2-a]pyridin-2-yl]methyl]-4-oxo-pyrido[1,2-a]pyrimidine-2-carboxamide] |
|  | 3000 nM | 11.3 nM | CC(C)(C)CNCc1ccc2nc(Cn3cc(-c4cccc5[nH]ncc45)nn3)cn2c1 [Example 250, (2,2-dimethylpropyl)[(2-{[4-(1H-indazol-4-yl)-1H-1,2,3-triazol-1-yl]methyl}imidazo[1,2-a]pyridin-6-yl)methyl]amine] |
| 5.92 nM | 1440 nM |  | OC1(CNCc2ccc3nc(Cn4cc(-c5cc(Cl)cc6[nH]ncc56)nn4)cn3c2)CCC1 [Example 303, 1-[[[2-[[4-(6-chloro-1H-indazol-4-yl)triazol-1-yl]methyl]imidazo[1,2-a]pyridin-6-yl]methylamino]methyl]cyclobutanol] |
| 15 nM | 7370 nM |  | CCC(C)CNCc1ccc2nc(CNC(=O)c3cc(=O)n4ccccc4n3)cn2c1 (stereo not shown) [Compound 285, N-[[6-[(2-methylbutylamino)methyl]imidazo[1,2-a]pyridin-2-yl]methyl]-4-oxo-pyrido[1,2-a]pyrimidine-2-carboxamide] |
|  | 714 nM | 8.02 nM | FC1(F)CC(CNCc2ccc3nc(Cn4cc(-c5cc(Br)cc6[nH]ncc56)nn4)cn3c2)C1 [Example 252, [(2-{[4-(6-bromo-1H-indazol-4-yl)-1H-1,2,3-triazol-1-yl]methyl}imidazo[1,2-a]pyridin-6-yl)methyl][(3,3-difluorocyclobutyl)methyl]amine] |
| 11.4 nM | 5610 nM |  | OC1(CNCc2ccc3nc(Cn4cc(-c5ccc(F)c6[nH]ncc56)nn4)cn3c2)CCC1 [Example 308, 1-[[[2-[[4-(7-fluoro-1H-indazol-4-yl)triazol-1-yl]methyl]imidazo[1,2-a]pyridin-6-yl]methylamino]methyl]cyclobutanol] |
| 29.3 nM | 10700 nM |  | CCCCNCc1ccc2nc(CNC(=O)c3cc(=O)n4ccccc4n3)cn2c1 [Compound 283, N-[[6-(butylaminomethyl)imidazo[1,2-a]pyridin-2-yl]methyl]-4-oxo-pyrido[1,2-a]pyrimidine-2-carboxamide] |
|  | ≥ 30000 nM | 429 nM | CC(C)(C)NCc1ccc2nc(CNC(=O)c3cc(=O)n4ccccc4n3)cn2c1 [Compound 127, N-({6-[(tert-butylamino)methyl]imidazo [1,2-a]pyridin-2-yl}methyl)-4-oxo-4H-pyrido[1,2-a] pyrimidine-2-carboxamide] |
|  | 727 nM | 5.76 nM | CC1(C)CCN(Cc2ccc3nc(Cn4cc(-c5cccc6[nH]ncc56)nn4)cn3c2)CC1 [Example 251, 4-[1-({6-[(4,4-dimethylpiperidin-1-yl)methyl]imidazo[1,2-a]pyridin-2-yl}methyl)-1H-1,2,3-triazol-4-yl]-1H-indazole] |
| 5.67 nM | 1180 nM |  | Fc1cc(-c2cn(Cc3cn4cc(CNCC5CCC5)ccc4n3)nn2)c2cn[nH]c2c1 [Example 318, N-(cyclobutylmethyl)-1-[2-[[4-(6-fluoro-1H-indazol-4-yl)triazol-1-yl]methyl]imidazo[1,2-a]pyridin-6-yl]methanamine] |
| 18.4 nM | 6710 nM |  | O=c1cc(-c2cn(Cc3cn4cc(CNCC5CCC5)ccc4n3)nn2)nc2ccccn12 [Example 342, 2-[1-[[6-[(cyclobutylmethylamino)methyl]imidazo[1,2-a]pyridin-2-yl]methyl]triazol-4-yl]pyrido[1,2-a]pyrimidin-4-one] |
| 20 nM | 7190 nM |  | CCC(C)(C)CNCc1ccc2nc(CNC(=O)c3cc(=O)n4ccccc4n3)cn2c1 [Compound 292, N-[[6-[(2,2-dimethylbutylamino)methyl]imidazo[1,2-a]pyridin-2-yl]methyl]-4-oxo-pyrido[1,2-a]pyrimidine-2-carboxamide] |
|  | 649 nM | 6.69 nM | CC(C)(C)CNCc1ccc2nc(Cn3cc(-c4cc(Br)cc5[nH]ncc45)nn3)cn2c1 [Example 225, [(2-{[4-(6-bromo-1H-indazol-4-yl)-1H-1,2,3-triazol-1-yl]methyl}imidazo[1,2-a]pyridin-6-yl)methyl](2,2-dimethylpropyl)amine] |
|  | 1480 nM | 8.14 nM | Brc1cc(-c2cn(Cc3cn4cc(CNCC5CCCCC5)ccc4n3)nn2)c2cn[nH]c2c1 [Example 226, [(2-{[4-(6-bromo-1H-indazol-4-yl)-1H-1,2,3-triazol-1-yl]methyl}imidazo[1,2-a]pyridin-6-yl)methyl](cyclohexylmethyl)amine] |
| 6.01 nM | 1830 nM |  | Fc1ccc(-c2cn(Cc3cn4cc(CNCC5CCC5)ccc4n3)nn2)c2cn[nH]c12 [Example 305, N-(cyclobutylmethyl)-1-[2-[[4-(7-fluoro-1H-indazol-4-yl)triazol-1-yl]methyl]imidazo[1,2-a]pyridin-6-yl]methanamine] |
